Assay results: PMC1142193 (Evidence-based Complementary and Alternative Medicine, 2005)
“Also recorded” adds a separate entry of the source.

Biological target: SARS-CoV 3CL^Pro (Severe acute respiratory syndrome coronavirus, UniProt P0C6U8)
Assay: biochemical
Type: biochemical
Settings: for IC50: IC50, inhibition of SARS 3CL^Pro activity

SMILES	Inhibition of 3CL^Pro activity (in words)	Inhibition of 3CL^Pro activity at concentrations up to 100 µM (in words)	IC50 [µM]
Cn1c(=O)c2[nH]cnc2n(C)c1=O [Theophylline, theophylline, reference compound]	did not inhibit; also recorded: did not influence 3CL^Pro activity	not able to inhibit	–
Oc1cc(O)c2c(c1)O[C@H](c1cc(O)c(O)c(O)c1)[C@H](O)C2 [EGC, epigallocatechin]	did not inhibit	not able to inhibit	≥ 100
O=C(O[C@@H]1Cc2c(O)cc(O)cc2O[C@@H]1c1ccc(O)c(O)c1)c1cc(O)c(O)c(O)c1 [ECg, epicatechin gallate]	did not inhibit	not able to inhibit	≥ 100
O=c1c(O)cc([C@H]2Oc3cc(O)cc(O)c3C[C@H]2O)cc2c([C@H]3Oc4cc(O)cc(O)c4C[C@H]3O)cc(O)c(O)c12 [TF1, Theaflavin]	found to inhibit 3CL^Pro	–	56
Cn1c(=O)c2c(ncn2C)n(C)c1=O [Caffeine, caffeine, reference compound]	did not inhibit; also recorded: did not influence 3CL^Pro activity	not able to inhibit	–
Oc1cc(O)c2c(c1)O[C@H](c1ccc(O)c(O)c1)[C@H](O)C2 [EC, epicatechin]	did not inhibit	not able to inhibit	≥ 100
